These results are taken from US12180207B2 (ARRAY BIOPHARMA INC., priority 2018, dated 2024).

Structures are written as SMILES.

Assay [1] concerns the target dephosphorylated FGFR1 (SEQ ID NO: 1, amino acids 458 to 765) (Homo sapiens (Human), UniProt P11362). Briefly: FGFR enzyme binding assay (HTRF tracer displacement), FGFR1. The settings on record: 5 nM dephosphorylated FGFR1, average of multiple determinations if made. As for the experimental part: (§1) The potency of compounds inhibiting human isoforms of FGFR kinase was determined using Life Technologies' Homogeneous Time Resolved Fluorescence (HTRF)-based binding assay technology. […] After a 60 minute incubation at 22° C., the extent of tracer displacement was determined using a PerkinElmer EnVision multimode plate reader via HTRF dual wavelength detection, and the percent of control (POC) was calculated using a ratiometric emission factor. One hundred POC was determined using no test compound, and 0 POC was determined in the presence of 1 μM of an appropriate control inhibitor.

Assay [2] has as its target phosphorylated FGFR3 (SEQ ID NO: 5, amino acids 449 to 759) (Homo sapiens (Human), UniProt P22607). The assay is described as follows: FGFR enzyme binding assay (HTRF tracer displacement), FGFR3. The settings on record: 5 nM phosphorylated FGFR3, average of multiple determinations if made. How it is done: as §1
In general terms: TR-FRET usually uses a lanthanide donor and a delayed reading to cut background.

Assay [3] has as its target recombinant human FGFR1 catalytic domain (amino acids 308-731) (Homo sapiens (Human), UniProt P11362). Briefly: FGFR1 enzyme activity assay (LanthaScreen TR-FRET). Format: biochemical. The settings on record: 20 min incubation at 22° C., average of multiple determinations if made, read-out: FGFR1 Enz FRET IC50. How it is done: FGFR1 kinase activity was measured by the Invitrogen LanthaScreen™ Assay technology which directly measures the amount of substrate phosphorylation by Time-resolved fluorescence energy transfer (TR-FRET) using a fluorescently-labeled peptide and Europium-labeled antibody. Briefly, […] His-tagged recombinant human FGFR1 catalytic domain (amino acids 308-731) (Life Technologies Cat. No. PR4660A) was incubated with 100 nM Alexa Fluor® 647-Poly-GT Peptide Substrate (Life Technologies Cat. No. PV5836) and […] ATP along with test compound in a buffer consisting of 250 mM HEPES, 25 mM MgCl2, 0.05% TritonX-100, pH 7.5, and 2% DMSO. […] After a 20 minutes incubation at 22° C., an equal volume of 2 nM LanthaScreen® Eu-PY20 Antibody (Life Technologies Cat. No. PV5691) and 10 mM EDTA was added to quench the kinase reaction and start the detection reaction. After an additional 60 minute incubation at 22° C., the reaction was measured using a PerkinElmer EnVision multimode plate reader via TR-FRET dual wavelength detection, and the percent of control (POC) calculated using a ratiometric emission factor. 100 POC was determined using no test compounds and 0 POC was determined using no enzyme. The POC values were fit to a 4-parameter logistic curve as a function of the concentration of the compound, and the IC50 value is the point where the curve crosses 50 POC.

Assay [4] deals with recombinant human FGFR2 cytoplasmic domain (amino acids 403-822) (Homo sapiens (Human), UniProt P21802). The assay is described as follows: FGFR2 enzyme activity assay (LanthaScreen TR-FRET). Format: biochemical. The settings on record: 15 μM ATP, 20 min incubation at 22° C., average of multiple determinations if made, read-out: FGFR2 Enz FRET IC50. As for the experimental part:
FGFR2 kinase activity was measured by the Invitrogen LanthaScreen™ Assay technology which directly measures the amount of substrate phosphorylation by TR-FRET using a fluorescently-labeled peptide and Europium-labeled antibody. Briefly, […] His-tagged recombinant human FGFR2 cytoplasmic domain (amino acids 403-822) (Life Technologies Cat. No. PR5332A) was incubated with 100 nM Alexa Fluor® 647-Poly-GT Peptide Substrate (Life Technologies Cat. No. PV5836) and 15 μM ATP along with test compound in a buffer consisting of 250 mM HEPES, 25 mM MgCl2, 0.05% TritonX-100, pH 7.5, and 2% DMSO. […] After a 20 minute incubation at 22° C., an equal volume of 2 nM LanthaScreen® Eu-PY20 Antibody (Life Technologies Cat. No. PV5691) and 10 mM EDTA were added to quench the kinase reaction and start the detection reaction. After an additional 60 minute incubation at 22° C., the reaction was measured using a PerkinElmer EnVision multimode plate reader via TR-FRET dual wavelength detection, and the percent of control (POC) calculated using a ratiometric emission factor. 100 POC was determined using no test compounds and 0 POC was determined using no enzyme. The POC values were fit to a 4-parameter logistic curve as a function of the concentration of the compound, and the IC50 value is the point where the curve crosses 50 POC.

In assay [5] the target is recombinant human FGFR3 (amino acids R397-T806) (Homo sapiens (Human), UniProt P22607). The assay is described as follows: FGFR3 enzyme activity assay (LanthaScreen TR-FRET). The assay is classed as biochemical. The settings on record: 25 μM ATP, 10 min incubation at 22° C., average of multiple determinations if made, read-out: FGFR3 Enz FRET IC50. How it is done: FGFR3 kinase activity was measured by the Invitrogen LanthaScreen™ Assay technology which directly measures the amount of substrate phosphorylation by TR-FRET using a fluorescently-labeled peptide and Europium-labeled antibody. Briefly, […] N-terminal GST-HIS6 fusion protein with a 3C cleavage site recombinant human FGFR3 (amino acids R397-T806) (ProQinase Cat. No. 1068-0000-1) was incubated with 100 nM Alexa Fluor® 647-Poly-GT Peptide Substrate (Life Technologies Cat. No. PV5836) and 25 μM ATP along with test compound in a buffer consisting of 250 mM HEPES, 25 mM MgCl2, 0.05% TritonX-100, pH 7.5, and 2% DMSO. […] After a 10 minute incubation at 22° C., an equal volume of 2 nM LanthaScreen® Eu-PY20 Antibody (Life Technologies Cat. No. PV5691) and 10 mM EDTA were added to quench the kinase reaction and start the detection reaction. After an additional 60 minute incubation at 22° C., the reaction was measured using a PerkinElmer EnVision multimode plate reader via TR-FRET dual wavelength detection, and the percent of control (POC) calculated using a ratiometric emission factor. 100 POC was determined using no test compounds and 0 POC was determined using no enzyme. The POC values were fit to a 4-parameter logistic curve as a function of the concentration of the compound, and the IC50 value is the point where the curve crosses 50 POC.
recombinant human FGFR3 (amino acids R397-T806), sequence (P22607 397-806): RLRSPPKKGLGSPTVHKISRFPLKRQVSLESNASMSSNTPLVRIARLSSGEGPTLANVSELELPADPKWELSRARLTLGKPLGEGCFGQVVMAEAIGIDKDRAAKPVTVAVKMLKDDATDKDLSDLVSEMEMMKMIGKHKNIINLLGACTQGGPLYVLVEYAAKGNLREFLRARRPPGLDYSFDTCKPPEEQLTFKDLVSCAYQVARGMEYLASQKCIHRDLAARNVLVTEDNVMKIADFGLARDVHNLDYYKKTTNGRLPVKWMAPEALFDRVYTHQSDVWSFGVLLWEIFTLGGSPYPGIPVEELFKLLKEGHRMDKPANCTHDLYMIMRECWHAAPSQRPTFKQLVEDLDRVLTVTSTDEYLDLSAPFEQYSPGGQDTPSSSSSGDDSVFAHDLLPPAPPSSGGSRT

The target in assay [6] is FGFR1 (SEQ ID NO: 1, amino acids 458-765) (Homo sapiens (Human), UniProt P11362). The assay is described as follows: LC/MS FGFR1 kobs assay (covalent protein modification). The assay is classed as binding. The settings on record: 500 nM FGFR1, 3 μM compound. As for the experimental part: (§2) The LC/MS FGFR1 and FGFR3 kobs assays were conducted as follows. […] At each time point, the reaction was quenched with 20 μL of 0.4% formic acid. The extent of protein modification by each compound was determined by LC/MS on an Agilent Technologies 6520 Q-TOF LC/MS. Protein signals were then automatically deconvoluted using Agilent Masshunter software. Deconvoluted mass signals were exported to Tibco Spotfire data analysis program for further processing and normalization.
FGFR1 (SEQ ID NO: 1, amino acids 458-765), sequence (P11362 458-765): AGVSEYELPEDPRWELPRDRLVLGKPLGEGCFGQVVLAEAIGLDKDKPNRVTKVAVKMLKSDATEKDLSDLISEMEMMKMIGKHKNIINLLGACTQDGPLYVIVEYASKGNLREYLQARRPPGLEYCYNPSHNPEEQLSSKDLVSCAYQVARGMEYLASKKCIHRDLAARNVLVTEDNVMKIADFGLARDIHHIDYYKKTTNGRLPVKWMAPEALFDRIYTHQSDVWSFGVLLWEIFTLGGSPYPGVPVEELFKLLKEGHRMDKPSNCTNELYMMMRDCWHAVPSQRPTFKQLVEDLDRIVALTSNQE
(§3) Data analysis included five steps. First, the signals for the “DMSO Controls” were analyzed to determine the percent of signal associated with unmodified FGFR1 or FGFR3 at each time point. Next, the percent of the signal associated with the covalent modification was determined. Third, the average nonmodified “DMSO Control” signal was used to normalize the modified protein signals at each time point. The percent of unmodified protein was fit to an exponential decay model where A0 is the Percent Unmodified at the start of the reaction, and kobs is the observed rate constant over the time period.

Assay [7] deals with FGFR3 (SEQ ID NO: 5, amino acids 449-759) (Homo sapiens (Human), UniProt P22607). The assay is described as follows: LC/MS FGFR3 kobs assay (covalent protein modification). Format: binding. The settings on record: 500 nM FGFR3, 3 μM compound. How it is done:
as §2, §3
Table EC contains kobs values for compounds tested in these assays, presented as the average of multiple determinations if multiple determinations were made. ND=not determined.

FGFR3 (SEQ ID NO: 5, amino acids 449-759), sequence (P22607 449-759): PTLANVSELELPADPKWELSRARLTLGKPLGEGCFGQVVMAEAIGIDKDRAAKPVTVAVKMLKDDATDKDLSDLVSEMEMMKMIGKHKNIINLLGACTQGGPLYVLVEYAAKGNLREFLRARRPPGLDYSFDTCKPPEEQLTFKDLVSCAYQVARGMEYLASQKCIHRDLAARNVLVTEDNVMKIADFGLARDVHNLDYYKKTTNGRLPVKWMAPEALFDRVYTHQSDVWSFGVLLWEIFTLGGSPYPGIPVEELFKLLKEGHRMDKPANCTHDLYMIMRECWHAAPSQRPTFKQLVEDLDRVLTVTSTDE
phosphorylated FGFR3 (SEQ ID NO: 5, amino acids 449 to 759), sequence (P22607 449-759): as above
recombinant human FGFR1 catalytic domain (amino acids 308-731), sequence (P11362 other isoform, or with tags, fused parts or gaps): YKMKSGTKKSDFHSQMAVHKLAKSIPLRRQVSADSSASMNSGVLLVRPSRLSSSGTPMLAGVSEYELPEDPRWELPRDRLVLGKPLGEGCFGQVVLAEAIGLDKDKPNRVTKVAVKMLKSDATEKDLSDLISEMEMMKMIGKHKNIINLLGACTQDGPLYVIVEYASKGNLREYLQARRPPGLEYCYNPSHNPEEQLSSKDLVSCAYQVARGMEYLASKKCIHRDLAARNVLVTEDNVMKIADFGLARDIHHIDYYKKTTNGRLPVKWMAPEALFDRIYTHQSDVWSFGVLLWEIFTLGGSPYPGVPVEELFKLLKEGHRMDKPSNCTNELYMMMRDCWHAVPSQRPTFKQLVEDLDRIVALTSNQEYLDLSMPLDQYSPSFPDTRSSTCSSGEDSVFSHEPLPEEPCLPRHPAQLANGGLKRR
dephosphorylated FGFR1 (SEQ ID NO: 1, amino acids 458 to 765), sequence (P11362 458-765): as the sequence (P11362 458-765) above
recombinant human FGFR2 cytoplasmic domain (amino acids 403-822), sequence (P21802 402-821): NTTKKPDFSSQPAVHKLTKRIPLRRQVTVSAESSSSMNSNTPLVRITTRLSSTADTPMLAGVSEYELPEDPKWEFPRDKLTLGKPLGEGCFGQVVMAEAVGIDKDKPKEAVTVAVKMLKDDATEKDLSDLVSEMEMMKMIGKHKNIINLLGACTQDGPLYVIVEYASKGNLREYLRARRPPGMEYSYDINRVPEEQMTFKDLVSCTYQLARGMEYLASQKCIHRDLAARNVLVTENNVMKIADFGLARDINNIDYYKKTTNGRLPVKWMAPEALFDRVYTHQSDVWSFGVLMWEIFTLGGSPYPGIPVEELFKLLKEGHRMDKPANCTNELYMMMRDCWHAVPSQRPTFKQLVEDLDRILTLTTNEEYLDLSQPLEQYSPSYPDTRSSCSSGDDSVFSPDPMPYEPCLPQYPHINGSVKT

In general, IC50 refers to the point on the concentration scale where inhibition reaches its midpoint. Regarding `C=CC(=O)N1CCN(c2cccc(-n3cc(-c4cc(OC)c5c(C#N)cnn5c4)cn3)c2)CC1` [Example 27, 6-(1-(3-(4-acryloylpiperazin-1-yl)phenyl)-1H-pyrazol-4-yl)-4-methoxypyrazolo[1,5-a]pyridine-3-carbonitrile], the IC50 in assay [1] stood at 191 nM; in assay [2], 44 nM; in assay [3], 63 nM; in assay [4], 13 nM; in assay [5] it was 21 nM. Moreover, the “FGFR1 Enz kobs” value in assay [6] was 0.00017 min⁻¹. The “FGFR3 Enz kobs” value in assay [7] was 0.00184 min⁻¹.
For the molecule `C=CC(=O)N1CCN(c2ccc(-c3cc(OC)c4c(C#N)cnn4c3)cc2)CC1` [Example 99, 6-(4-(4-acryloylpiperazin-1-yl)phenyl)-4-methoxypyrazolo[1,5-a]pyridine-3-carbonitrile], the IC50 in assay [1] came to 47 nM; in assay [2], 5 nM; in assay [3], 13 nM; in assay [4], 5 nM; in assay [5] it was 3 nM. The “FGFR1 Enz kobs” value in assay [6] was 0.00044 min⁻¹. For the same molecule, the “FGFR3 Enz kobs” value in assay [7] was found to be 0.00353 min⁻¹.
For `C=CC(=O)N[C@H]1CC[C@H](C(=O)N2CC[C@@H](n3cc(-c4cc(OC)c5c(C#N)cnn5c4)cn3)C2)CC1` [Example 54, N-((1R,4r)-4-((R)-3-(4-(3-cyano-4-methoxypyrazolo[1,5-a]pyridin-6-yl)-1H-pyrazol-1-yl)pyrrolidine-1-carbonyl)cyclohexyl)acryl-amide], the IC50 in assay [1] is 142 nM; in assay [2] it was 25 nM; in assay [3] it was 47 nM; in assay [4], 16 nM; in assay [5], 16 nM. Besides, the “FGFR3 Enz kobs” value in assay [7] was found to be 0.00025 min⁻¹.
With `C=CC(=O)N1CCC(Oc2cccc(-n3cc(-c4cc(OC)c5c(C#N)cnn5c4)cn3)c2)CC1` [Example 26, 6-(1-(3-((1-acryloylpiperidin-4-yl)oxy)phenyl)-1H-pyrazol-4-yl)-4-methoxypyrazolo[1,5-a]pyridine-3-carbonitrile], the IC50 amounted to 552 nM in assay [1]; 128 nM in assay [2]; 188 nM in assay [3]; 42 nM in assay [4]; 58 nM in assay [5]. The “FGFR3 Enz kobs” value in assay [7] came out at 0.0007 min⁻¹.
Consider `C=CC(=O)N[C@H]1CC[C@H](C(=O)N2CC[C@H](n3cc(-c4cc(OC)c5c(C#N)cnn5c4)cn3)C2)CC1` [Example 65, N-((1S,4r)-4-((S)-3-(4-(3-cyano-4-methoxypyrazolo[1,5-a]pyridin-6-yl)-1H-pyrazol-1-yl)pyrrolidine-1-carbonyl)cyclohexyl)acryl-amide], for which the IC50 in assay [1] stood at 177 nM; in assay [2], 56 nM; in assay [3], 26 nM; in assay [4] it was 6 nM; in assay [5] it was 3 nM. Also, the “FGFR3 Enz kobs” value in assay [7] is 0.0002 min⁻¹.
As for `C=CC(=O)N[C@H]1C[C@H](C(=O)N2CC[C@H](n3cc(-c4cc(OC)c5c(C#N)cnn5c4)cn3)C2)C1` [Example 74, N-((1S,3r)-3-((S)-3-(4-(3-cyano-4-methoxypyrazolo[1,5-a]pyridin-6-yl)-1H-pyrazol-1-yl)pyrrolidine-1-carbonyl)cyclobutyl)acryl-amide], the IC50 in assay [1] is 18 nM; in assay [2], 3 nM; in assay [3], 19 nM; in assay [4] it was 6 nM; in assay [5], 2 nM. The “FGFR3 Enz kobs” value in assay [7] was 0.00063 min⁻¹.
Regarding `CC#CC(=O)N1CC(C(=O)N2CCC(n3cc(-c4cc(OC)c5c(C#N)cnn5c4)cn3)CC2)C1` [Example 139, 6-(1-(1-(1-(but-2-ynoyl)azetidine-3-carbonyl)piperidin-4-yl)-1H-pyrazol-4-yl)-4-methoxypyrazolo [1,5-a]pyridine-3-carbonitrile], the IC50 was 104 nM in assay [1], 11 nM in assay [2], 13 nM in assay [3] and 4 nM in assay [5]. Besides, in assay [6], the “FGFR1 Enz kobs” value was 0.00047 min⁻¹. Further, in assay [7], the “FGFR3 Enz kobs” value stood at 0.00281 min⁻¹.
`C=CC(=O)N[C@H]1CC[C@@H](C(=O)N2CCC(n3cc(-c4cc(OC)c5c(C#N)cnn5c4)cn3)CC2)CC1` [Example 20, N-((1s,4s)-4-(4-(4-(3-cyano-4-methoxypyrazolo[1,5-a]pyridin-6-yl)-1H-pyrazol-1-yl)piperidine-1-carbonyl)cyclohexyl)acryl-amide]: the half-inhibitory concentration (IC50) worked out at 93 nM in assay [1]; 18 nM in assay [2]; 14 nM in assay [3]; 3 nM in assay [4]; 3 nM in assay [5]. Further, the “FGFR3 Enz kobs” value in assay [7] worked out at 0.00051 min⁻¹.
`C=CC(=O)N[C@H]1CC[C@H](C(=O)N2CCC(n3cc(-c4cc(OC)c5c(C#N)cnn5c4)cn3)CC2)CC1` [Example 18, N-((1r,4r)-4-(4-(4-(3-cyano-4-methoxypyrazolo[1,5-a]pyridin-6-yl)-1H-pyrazol-1-yl)piperidine-1-carbonyl)cyclohexyl)acryl-amide]: the IC50 in assay [1] is 131 nM; in assay [2], 26 nM; in assay [3], 18 nM; in assay [4], 4 nM; in assay [5], 2 nM. The “FGFR3 Enz kobs” value in assay [7] stood at 0.0004 min⁻¹.
